Source: patent US20190010535A1, “METHODS AND COMPOSITIONS FOR THE DIAGNOSIS AND FOR THE TREATMENT OF ADRENOLEUKODYSTROPHY” (FUNDACIÓ INSTITUT D'INVESTIGACIÓ BIOMÈDICA DE BELLVITGE …, priority 2015, published 2019)

Columns and labels:
Assay type in all cases: in vivo
Abcd1−/Abcd2−/− mice [1] = experiment: Horizontal bar cross test; conditions: four months of treatment starting at 12 months of age
Experimental: The bar cross test was carried out using a wooden bar of 100 cm in length and 2 cm in width (diameter). This bar is just wide enough for mice to stand on with their hind feet hanging over the edge such that any slight lateral misstep will result in a slip. […] The mice were put on one end of the bar and expected to cross to the other end. To eliminate the novelty of the task as a source of slips, all animals were given four trials on the bar the day before and at the beginning of the testing session. In an experimental session, the number of hind limb lateral slips and falls from the bar was counted on four consecutive trials. If an animal fell, it was placed back on the bar at the point at which it fell and was allowed to complete the task. The bar was cleaned with ethanol after each animal.

Abcd1−/Abcd2−/− mice [2] = experiment: Treadmill test; conditions: four months of treatment starting at 12 months of age, belt speed 30 cm/sec, slope 20°
Experimental: (§1) Treadmill apparatus consisted of a variable speed belt varying in terms of speed and slope. An electrified grid was located to the rear of the belt on which footshocks (0.2 mA) were administered whenever the mice fell off the belt. The treadmill apparatus (Panlab, Barcelona, Spain) consisted of a belt (50 cm long and 20 cm wide) varying in terms of speed (5 to 150 cm/s) and slope (0-25°) enclosed in a plexiglass chamber. The latency to falling off the belt (time of shocks in seconds) and the number of received shocks were measured. The mice were placed on the top of the already moving belt facing away from the electrified grid and in the direction opposite to the movement of the belt. Thus, to avoid the footshocks, the mice had to locomote forward.
(§2) The mice were evaluated in five trials in a single-day session. In the first trial, the belt speed was set at 20 cm/s and the inclination at 50. […] When the mice were subjected to consecutive trials at increasing speeds up to 20 cm/sec and a 20° slope, no differences were detected from one session to another between the WT and Abcd1^−/Abcd2^−/− mice. However, when the belt speed was increased up to 30 cm/sec and the slope was 20°, differences were detected between the Abcd1^−/Abcd2^−/− mice and the controls because this task requires greater coordination. […]

Abcd1−/Abcd2−/− mice [3] = experiment: Locomotor testing overall (treadmill and bar cross), disease progression in X-ALD mice; conditions: four months of treatment
Experimental: as §1, with “Thus, to avoid the footshocks, the mice had to locomote forward.” left out
as §2, with “session.” for “session. In the first trial, the belt speed was set at 20 cm/s and the inclination at 50.”
The bar cross test was carried out using a wooden bar of 100 cm in length and 2 cm in width (diameter). […] In an experimental session, the number of hind limb lateral slips and falls from the bar was counted on four consecutive trials. […]

SMILES | number of slips (Abcd1−/Abcd2−/− mice [1]) | time necessary to cross the bar (Abcd1−/Abcd2−/− mice [1]) | ratio between the time of shocks and the number of shocks (locomotor deficit index) (Abcd1−/Abcd2−/− mice [2]) | progression of the disease in X-ALD mice (Abcd1−/Abcd2−/− mice [3])
CCCCCCCCc1ccc(CCC(N)(CO)CO)cc1 [Fingolimod] | normalized | normalized | indistinguishable from the WT ratio | arrested the progression of the disease
CCc1cc(/C(C)=N/OCc2ccc(C3CCCCC3)c(C(F)(F)F)c2)ccc1CN1CC(C(=O)O)C1 [Siponimod] | normalized | normalized | indistinguishable from the WT ratio | arrested the progression of the disease
